Laboratory results published in patent publication US20100099561A1, “HETEROBICYCLIC ALKYLTHIO-BRIDGED ISOXAZOLINES” (E.I. DU PONT DE NEMOURS AND COMPANY, priority 2008, published 2010).

Tests used:
Format in all cases: in vivo
[1] = test system: morningglory (Ipomoea spp.); experiment: Test A preemergence, morningglory; conditions: 0 to 100 scale (0 no effect, 100 complete control)
How it was run: (§1)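 Greenhouse pre/postemergence test, loam–sand soil. Postemergence plants one- to two-leaf, 2–10 cm. Visual injury rating ~10 d after treatment, 0–100 vs untreated.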

[2] = test system: wheat (Triticum aestivum); experiment: Test A preemergence, wheat; conditions: 0 to 100 scale (0 no effect, 100 complete control)
How it was run: as §1

[3] = test system: large crabgrass (Digitaria sanguinalis); experiment: Test A postemergence, large crabgrass; conditions: 0 to 100 scale (0 no effect, 100 complete control)
How it was run: as §1

[4] = test system: morningglory (Ipomoea spp.); experiment: Test A postemergence, morningglory; conditions: 0 to 100 scale (0 no effect, 100 complete control)
How it was run: as §1

[5] = test system: pigweed (Amaranthus retroflexus); experiment: Test A postemergence, pigweed; conditions: 0 to 100 scale (0 no effect, 100 complete control)
How it was run: as §1

[6] = test system: velvetleaf (Abutilon theophrasti); experiment: Test A postemergence, velvetleaf; conditions: 0 to 100 scale (0 no effect, 100 complete control)
How it was run: as §1

[7] = test system: wheat (Triticum aestivum); experiment: Test A postemergence, wheat; conditions: 0 to 100 scale (0 no effect, 100 complete control)
How it was run: as §1

[8] = test system: blackgrass (Alopecurus myosuroides); experiment: Test B preemergence, blackgrass; conditions: scale 0 to 100
Excerpt: (§2) Seeds of plant species selected from blackgrass (Alopecurus myosuroides), downy bromegrass (Bromus tectorum), green foxtail (Setaria viridis), Italian ryegrass (Lolium multiflorum), wheat (Triticum aestivum), wild oat (Avena fatua), catchweed bedstraw (Galium aparine), bermudagrass (Cynodon dactylon), Surinam grass (Brachiaria decumbens), cocklebur (Xanthium strumarium), corn (Zea mays), large crabgrass (Digitaria sanguinalis), woolly cupgrass (Eriochloa villosa), giant foxtail (Setaria faberii), goosegrass (Eleusine indica), johnsongrass (Sorghum halepense), kochia (Kochia scoparia), lambsquarters (Chenopodium album), morningglory (Ipomoea coccinea), nightshade (eastern black nightshade, Solanum ptycanthum), yellow nutsedge (Cyperus esculentus), pigweed (Amaranthus retroflexus), ragweed (common ragweed, Ambrosia elatior), soybean (Glycine max), sunflower (common oilseed sunflower, Helianthus annuus), Russian thistle (Salsola kali), and velvetleaf (Abutilon theophrasti) were planted into a blend of loam soil and sand and treated preemergence with test compounds formulated in a non-phytotoxic solvent mixture which included a surfactant. Treated plants and controls were maintained in a greenhouse for 13 to 15 days, after which time all species were compared to controls and visually evaluated. Plant response ratings, summarized in Table B, are based on a scale of 0 to 100 where 0 is no effect and 100 is complete control. A dash (-) response means no test result.

[9] = test system: Italian ryegrass (Lolium multiflorum); experiment: Test B preemergence, Italian ryegrass; conditions: Preemergence, scale 0 to 100
How it was run: (§3)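 Visual ratings of 0–100 (complete control at 100) were made versus untreated controls after 13–15 days in the greenhouse. Compounds, formulated with surfactant in a non-phytotoxic solvent, were applied preemergence to seeds planted in a loam soil and sand mix.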

[10] = test system: wheat (Triticum aestivum); experiment: Test B preemergence, wheat; conditions: Preemergence, scale 0 to 100
How it was run: as §3

[11] = test system: bermudagrass (Cynodon dactylon); experiment: Test B preemergence, bermudagrass; conditions: scale 0 to 100
Excerpt: as §2

[12] = test system: corn (Zea mays); experiment: Test B preemergence, corn; conditions: scale 0 to 100
Excerpt: as §2

[13] = test system: large crabgrass (Digitaria sanguinalis); experiment: Test B preemergence, large crabgrass; conditions: scale 0 to 100
Excerpt: as §2

[14] = test system: woolly cupgrass (Eriochloa villosa); experiment: Test B preemergence, woolly cupgrass; conditions: scale 0 to 100
Excerpt: as §2

[15] = test system: goosegrass (Eleusine indica); experiment: Test B preemergence, goosegrass; conditions: scale 0 to 100
Excerpt: as §2

[16] = test system: lambsquarters (Chenopodium album); experiment: Test B preemergence, lambsquarters; conditions: scale 0 to 100
Excerpt: as §2

[17] = test system: morningglory (Ipomoea coccinea); experiment: Test B preemergence, morningglory; conditions: scale 0 to 100
Excerpt: as §2

[18] = test system: ragweed (common ragweed, Ambrosia elatior); experiment: Test B preemergence, ragweed; conditions: scale 0 to 100
Excerpt: as §2

[19] = test system: rice (Oryza sativa); experiment: Test B flooded paddy test, rice; conditions: Flood, scale 0 to 100
How it was run: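 Paddy-water application to 2-leaf plants in pots held under 3 cm of flooding; response is a 0–100 visual control rating against controls after 13 to 15 days, and a dash marks a missing result.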

CC1(C)CC(S(=O)(=O)Cc2c(C(F)(F)C(F)(F)F)nc3n(c2=O)CCC3)=NO1 [Compound 22]
Plant response rating, Morningglory ([1]; 125 g ai/ha): 50 | Plant response rating, Morningglory ([1]; 500 g ai/ha): 80 | Plant response rating, Wheat ([2]; 125 g ai/ha): 0 | Plant response rating, Wheat ([2]; 500 g ai/ha): 50 | Plant response rating, Crabgrass, Large ([3]; 125 g ai/ha): 70 | Plant response rating, Crabgrass, Large ([3]; 500 g ai/ha): 80 | Plant response rating, Morningglory ([4]; 125 g ai/ha): 0 | Plant response rating, Morningglory ([4]; 500 g ai/ha): 50 | Plant response rating, Pigweed ([5]; 125 g ai/ha): 0 | Plant response rating, Pigweed ([5]; 500 g ai/ha): 40 | Plant response rating, Velvetleaf ([6]; 125 g ai/ha): 20 | Plant response rating, Velvetleaf ([6]; 500 g ai/ha): 60 | Plant response rating, Wheat ([7]; 125 g ai/ha): 20 | Plant response rating, Wheat ([7]; 500 g ai/ha): 50 | Plant response rating, Blackgrass ([8]; 16 g ai/ha): 0 | Plant response rating, Blackgrass ([8]; 31 g ai/ha): 40 | Plant response rating, Blackgrass ([8]; 62 g ai/ha): 40 | Plant response rating, Blackgrass ([8]; 125 g ai/ha): 98 | Plant response rating, Ryegrass, Italian ([9]; 16 g ai/ha): 0 | Plant response rating, Ryegrass, Italian ([9]; 31 g ai/ha): 30 | Plant response rating, Ryegrass, Italian ([9]; 62 g ai/ha): 100 | Plant response rating, Ryegrass, Italian ([9]; 125 g ai/ha): 100 | Plant response rating, Wheat ([10]; 16 g ai/ha): 0 | Plant response rating, Wheat ([10]; 31 g ai/ha): 0 | Plant response rating, Wheat ([10]; 62 g ai/ha): 0 | Plant response rating, Wheat ([10]; 125 g ai/ha): 10 | Plant response rating, Bermudagrass ([11]; 16 g ai/ha): 98 | Plant response rating, Bermudagrass ([11]; 31 g ai/ha): 100 | Plant response rating, Bermudagrass ([11]; 62 g ai/ha): 100 | Plant response rating, Bermudagrass ([11]; 125 g ai/ha): 100 | Plant response rating, Corn ([12]; 16 g ai/ha): 0 | Plant response rating, Corn ([12]; 31 g ai/ha): 0 | Plant response rating, Corn ([12]; 62 g ai/ha): 0 | Plant response rating, Corn ([12]; 125 g ai/ha): 10 | Plant response rating, Crabgrass, Large ([13]; 16 g ai/ha): 85 | Plant response rating, Crabgrass, Large ([13]; 31 g ai/ha): 90 | Plant response rating, Crabgrass, Large ([13]; 62 g ai/ha): 98 | Plant response rating, Crabgrass, Large ([13]; 125 g ai/ha): 100 | Plant response rating, Cupgrass, Woolly ([14]; 16 g ai/ha): 100 | Plant response rating, Cupgrass, Woolly ([14]; 31 g ai/ha): 100 | Plant response rating, Cupgrass, Woolly ([14]; 62 g ai/ha): 100 | Plant response rating, Cupgrass, Woolly ([14]; 125 g ai/ha): 100 | Plant response rating, Goosegrass ([15]; 16 g ai/ha): 30 | Plant response rating, Goosegrass ([15]; 31 g ai/ha): 80 | Plant response rating, Goosegrass ([15]; 62 g ai/ha): 100 | Plant response rating, Goosegrass ([15]; 125 g ai/ha): 100 | Plant response rating, Lambsquarters ([16]; 16 g ai/ha): 0 | Plant response rating, Lambsquarters ([16]; 31 g ai/ha): 0 | Plant response rating, Lambsquarters ([16]; 62 g ai/ha): 70 | Plant response rating, Lambsquarters ([16]; 125 g ai/ha): 100 | Plant response rating, Morningglory ([17]; 16 g ai/ha): 0 | Plant response rating, Morningglory ([17]; 31 g ai/ha): 0 | Plant response rating, Morningglory ([17]; 62 g ai/ha): 70 | Plant response rating, Morningglory ([17]; 125 g ai/ha): 100 | Plant response rating, Ragweed ([18]; 16 g ai/ha): 0 | Plant response rating, Ragweed ([18]; 31 g ai/ha): 0 | Plant response rating, Ragweed ([18]; 62 g ai/ha): 30 | Plant response rating, Ragweed ([18]; 125 g ai/ha): 50 | Plant response rating, Rice ([19]; 62 g ai/ha): 0 | Plant response rating, Rice ([19]; 250 g ai/ha): 10

CC1(C)CC(S(=O)(=O)Cc2c(C(F)(F)F)nc3n(c2=O)CCC3)=NO1 [Compound 11, 3-[[(4,5-dihydro-5,5-dimethyl-3-isoxazolyl)sulfonyl]methyl]-7,8-dihydro-2-(trifluoromethyl)pyrrolo[1,2-α]pyrimidin-4(6H)-one]
Plant response rating, Morningglory ([1]; 125 g ai/ha): 30 | Plant response rating, Morningglory ([1]; 500 g ai/ha): 90 | Plant response rating, Wheat ([2]; 125 g ai/ha): 0 | Plant response rating, Wheat ([2]; 500 g ai/ha): 60 | Plant response rating, Crabgrass, Large ([3]; 125 g ai/ha): 80 | Plant response rating, Crabgrass, Large ([3]; 500 g ai/ha): 90 | Plant response rating, Morningglory ([4]; 125 g ai/ha): 10 | Plant response rating, Morningglory ([4]; 500 g ai/ha): 60 | Plant response rating, Pigweed ([5]; 125 g ai/ha): 30 | Plant response rating, Pigweed ([5]; 500 g ai/ha): 70 | Plant response rating, Velvetleaf ([6]; 125 g ai/ha): 50 | Plant response rating, Velvetleaf ([6]; 500 g ai/ha): 80 | Plant response rating, Wheat ([7]; 125 g ai/ha): 20 | Plant response rating, Wheat ([7]; 500 g ai/ha): 60 | Plant response rating, Blackgrass ([8]; 16 g ai/ha): 0 | Plant response rating, Blackgrass ([8]; 31 g ai/ha): 70 | Plant response rating, Blackgrass ([8]; 62 g ai/ha): 70 | Plant response rating, Blackgrass ([8]; 125 g ai/ha): 100 | Plant response rating, Ryegrass, Italian ([9]; 16 g ai/ha): 0 | Plant response rating, Ryegrass, Italian ([9]; 31 g ai/ha): 0 | Plant response rating, Ryegrass, Italian ([9]; 62 g ai/ha): 0 | Plant response rating, Ryegrass, Italian ([9]; 125 g ai/ha): 90 | Plant response rating, Wheat ([10]; 16 g ai/ha): 0 | Plant response rating, Wheat ([10]; 31 g ai/ha): 0 | Plant response rating, Wheat ([10]; 62 g ai/ha): 20 | Plant response rating, Wheat ([10]; 125 g ai/ha): 50 | Plant response rating, Bermudagrass ([11]; 16 g ai/ha): 65 | Plant response rating, Bermudagrass ([11]; 31 g ai/ha): 100 | Plant response rating, Bermudagrass ([11]; 62 g ai/ha): 100 | Plant response rating, Bermudagrass ([11]; 125 g ai/ha): 100 | Plant response rating, Corn ([12]; 16 g ai/ha): 0 | Plant response rating, Corn ([12]; 31 g ai/ha): 0 | Plant response rating, Corn ([12]; 62 g ai/ha): 0 | Plant response rating, Corn ([12]; 125 g ai/ha): 0 | Plant response rating, Crabgrass, Large ([13]; 16 g ai/ha): 65 | Plant response rating, Crabgrass, Large ([13]; 31 g ai/ha): 85 | Plant response rating, Crabgrass, Large ([13]; 62 g ai/ha): 100 | Plant response rating, Crabgrass, Large ([13]; 125 g ai/ha): 100 | Plant response rating, Cupgrass, Woolly ([14]; 16 g ai/ha): 85 | Plant response rating, Cupgrass, Woolly ([14]; 31 g ai/ha): 100 | Plant response rating, Cupgrass, Woolly ([14]; 62 g ai/ha): 100 | Plant response rating, Cupgrass, Woolly ([14]; 125 g ai/ha): 100 | Plant response rating, Goosegrass ([15]; 16 g ai/ha): 65 | Plant response rating, Goosegrass ([15]; 31 g ai/ha): 90 | Plant response rating, Goosegrass ([15]; 62 g ai/ha): 100 | Plant response rating, Goosegrass ([15]; 125 g ai/ha): 100 | Plant response rating, Lambsquarters ([16]; 16 g ai/ha): 0 | Plant response rating, Lambsquarters ([16]; 31 g ai/ha): 0 | Plant response rating, Lambsquarters ([16]; 62 g ai/ha): 0 | Plant response rating, Lambsquarters ([16]; 125 g ai/ha): 100 | Plant response rating, Morningglory ([17]; 16 g ai/ha): 0 | Plant response rating, Morningglory ([17]; 31 g ai/ha): 65 | Plant response rating, Morningglory ([17]; 62 g ai/ha): 80 | Plant response rating, Morningglory ([17]; 125 g ai/ha): 95 | Plant response rating, Ragweed ([18]; 16 g ai/ha): 0 | Plant response rating, Ragweed ([18]; 31 g ai/ha): 40 | Plant response rating, Ragweed ([18]; 62 g ai/ha): 50 | Plant response rating, Ragweed ([18]; 125 g ai/ha): 55 | Plant response rating, Rice ([19]; 31 g ai/ha): 0 | Plant response rating, Rice ([19]; 62 g ai/ha): 0 | Plant response rating, Rice ([19]; 125 g ai/ha): 25 | Plant response rating, Rice ([19]; 250 g ai/ha): 25
